Measured values published in US10144732B2 (BIOGEN MA INC., priority 2014, dated 2018).
pIC50: −log10 of the molar value. Counter-ions that a name gives are not always drawn.

Molecular target: T1, Human ATX protein (Homo sapiens, UniProt Q13822)
T1 construct: made in house
Test: ATX biochemical assay (FRET, FS-3 substrate)
Conditions: FRET assay, FS-3 2 μM, ATX 1.0 μg/mL, 30 minutes preincubation, 2 hours reaction at room temperature; read-out: IC50
Procedure, shortened: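 In-house human ATX (1.0 μg/mL final) was preincubated with compound for 30 min at room temperature in Tris buffer pH 7.4 with 1 mg/mL fatty acid free-BSA. FS-3 substrate (2 μM final) was then hydrolysed for 2 hours at room temperature, protected from light, and read as fluorescence at ex 485/em 538 nm.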

Structure (SMILES) | pIC50
CCC1CC(CC(=O)N2CCc3c(C(F)(F)F)nn(Cc4ccc(F)cc4)c3C2)CCN1C(=O)OC(C)(C)C (stereo not shown) [Example 8-8, tert-Butyl 2-ethyl-4-(2-(1-(4-fluorobenzyl)-3-(trifluoromethyl)-4,5-dihydro-1H-pyrazolo[3,4-c]pyridin-6(7H)-yl)-2-oxoethyl)piperidine-1-carboxylate] | ≥ 7.00
O=C(C[C@H]1CC[C@@H](C(=O)O)CC1)N1CCc2c(C(F)(F)F)nn(Cc3ccc(Cl)cc3)c2C1 [Example 7-6, cis-4-(2-(1-(4-chlorobenzyl)-3-(trifluoromethyl)-4,5-dihydro-1H-pyrazolo[3,4-c]pyridin-6(7H)-yl)-2-oxoethyl)cyclohexanecarboxylic acid] | ≥ 7.00
CC(C)(C)OC(=O)N1CC(CC(=O)N2CCc3c(C(F)(F)F)nn(Cc4ccc(Cl)cc4F)c3C2)C[C@@H]1C(=O)O (stereo partly drawn) [Example 5-56, (2R)-1-(tert-Butoxycarbonyl)-4-(2-(1-(4-chloro-2-fluorobenzyl)-3-(trifluoromethyl)-4,5-dihydro-1H-pyrazolo[3,4-c]pyridin-6(7H)-yl)-2-oxoethyl)pyrrolidine-2-carboxylic acid] | ≥ 7.00
N[C@H]1CC[C@@H](CC(=O)N2CCc3c(C(F)(F)F)nn(Cc4ccc(Cl)cc4F)c3C2)CC1 [Example 9-17, 2-(cis-4-Aminocyclohexyl)-1-(1-(4-chloro-2-fluorobenzyl)-3-(trifluoromethyl)-4,5-dihydro-1H-pyrazolo[3,4-c]pyridin-6(7H)-yl)ethanone TFA salt] | ≥ 7.00
C[C@]1(C(=O)O)CC[C@@H](CC(=O)N2CCc3c(C(F)(F)F)nn(Cc4ccc(F)cc4)c3C2)CC1 [Example 7-25, cis-4-(2-(1-(4-fluorobenzyl)-3-(trifluoromethyl)-4,5-dihydro-1H-pyrazolo[3,4-c]pyridin-6(7H)-yl)-2-oxoethyl)-1-methylcyclohexanecarboxylic acid] | ≥ 7.00
O=C(O)C1CC(CC(=O)N2CCc3c(C(F)(F)F)nn(Cc4ccc(F)cc4)c3C2)C1 (mixture of isomers) [Example 6-9, 3-(2-(1-(4-Fluorobenzyl)-3-(trifluoromethyl)-4,5-dihydro-1H-pyrazolo[3,4-c]pyridin-6(7H)-yl)-2-oxoethyl)cyclobutanecarboxylic acid] | ≥ 7.00
O=C(N[C@H]1CC[C@H](C(=O)O)CC1)N1CCc2c(C(F)(F)F)nn(Cc3ccc(Cl)cc3F)c2C1 [Example 5-7, trans-4-(1-(4-Chloro-2-fluorobenzyl)-3-(trifluoromethyl)-4,5,6,7-tetrahydro-1H-pyrazolo[3,4-c]pyridine-6-carboxamido)cyclohexanecarboxylic acid] | ≥ 7.00
O=C(O)C1CCC(CC(=O)N2CCc3c(C(F)(F)F)nn(Cc4ccccc4F)c3C2)CC1 (mixture of isomers) [Example 6-3, 4-(2-(1-(2-Fluorobenzyl)-3-(trifluoromethyl)-4,5-dihydro-1H-pyrazolo[3,4-c]pyridin-6(7H)-yl)-2-oxoethyl)cyclohexanecarboxylic acid] | ≥ 7.00
O=C(C1CN2CCC1CC2)N1CCc2c(C(F)(F)F)nn(Cc3ccc(F)cc3)c2C1 (stereo not shown) [Example 1-35, (1-(4-Fluorobenzyl)-3-(trifluoromethyl)-4,5-dihydro-1H-pyrazolo[3,4-c]pyridin-6(7H)-yl)(quinuclidin-3-yl)methanone TFA salt] | 6.60 to 7.00
O=C(O)C1CCN(CC(=O)N2CCc3c(C(F)(F)F)nn(Cc4ccc(Cl)cc4F)c3C2)CC1 [Example 13-2, 1-(2-(1-(4-Chloro-2-fluorobenzyl)-3-(trifluoromethyl)-4,5-dihydro-1H-pyrazolo[3,4-c]pyridin-6(7H)-yl)-2-oxoethyl)piperidine-4-carboxylic acid] | ≥ 7.00
CCOC(=O)C1CCC(CC(=O)N2CCc3c(C(F)(F)F)nn(Cc4ccc(Cl)cc4)c3C2)CC1 (stereo not shown) [Example 1-8, Ethyl 4-(2-(1-(4-chlorobenzyl)-3-(trifluoromethyl)-4,5-dihydro-1H-pyrazolo[3,4-c]pyridin-6(7H)-yl)-2-oxoethyl)cyclohexanecarboxylate] | ≥ 7.00
O=C(C[C@H]1CC[C@H](C(=O)O)CC1)N1CCc2c(C(F)(F)F)nn(Cc3cc(F)c(F)c(F)c3)c2C1 [Example 5-33, trans-4-(2-(1-(3,4,5-Trifluorobenzyl)-3-(trifluoromethyl)-4,5-dihydro-1H-pyrazolo[3,4-c]pyridin-6(7H)-yl)-2-oxoethyl)cyclohexanecarboxylic acid] | ≥ 7.00
COC(=O)c1ccc(CC(=O)N2CCc3c(C(F)(F)F)nn(Cc4ccc(Cl)cc4F)c3C2)cc1 [Example 1-11, Methyl 4-(2-(1-(4-chloro-2-fluorobenzyl)-3-(trifluoromethyl)-4,5-dihydro-1H-pyrazolo[3,4-c]pyridin-6(7H)-yl)-2-oxoethyl)benzoate] | ≥ 7.00
O=C(O)C1CCCN(CC(=O)N2CCc3c(C(F)(F)F)nn(Cc4ccc(Cl)cc4F)c3C2)C1 (stereo not shown) [Example 13-3, 1-(2-(1-(4-Chloro-2-fluorobenzyl)-3-(trifluoromethyl)-4,5-dihydro-1H-pyrazolo[3,4-c]pyridin-6(7H)-yl)-2-oxoethyl)piperidine-3-carboxylic acid] | ≥ 7.00
O=C(CC1CC(N2CC(F)(F)C2)C1)N1CCc2c(C(F)(F)F)nn(Cc3ccc(F)cc3)c2C1 (stereo not shown) [Example 22-2, TFA salt] | ≥ 7.00
O=C(CC1CCN2CCCC2C1)N1CCc2c(C(F)(F)F)nn(Cc3ccc(Cl)cc3F)c2C1 (stereo not shown) [Example 1-33, 1-(1-(4-Chloro-2-fluorobenzyl)-3-(trifluoromethyl)-4,5-dihydro-1H-pyrazolo[3,4-c]pyridin-6(7H)-yl)-2-(octahydroindolizin-7-yl)ethanone TFA salt] | ≥ 7.00
O=C(CC1CCC(N2CCC2)CC1)N1CCc2c(C(F)(F)F)nn(Cc3ccc(F)cc3)c2C1 (stereo not shown) [Example 22-6, 2-(4-(Azetidin-1-yl)cyclohexyl)-1-(1-(4-fluorobenzyl)-3-(trifluoromethyl)-4,5-dihydro-1H-pyrazolo[3,4-c]pyridin-6(7H)-yl)ethanone TFA salt] | ≥ 7.00
CC1(C)C(NCC(=O)N2CCc3c(C(F)(F)F)nn(Cc4ccc(Cl)cc4F)c3C2)CC1C(=O)O (stereo not shown) [Example 13-11, 3-((2-(1-(4-Chloro-2-fluorobenzyl)-3-(trifluoromethyl)-4,5-dihydro-1H-pyrazolo[3,4-c]pyridin-6(7H)-yl)-2-oxoethyl)amino)-2,2-dimethylcyclobutanecarboxylic acid TFA salt] | ≥ 7.00
COC(=O)N1CCCC(CC(=O)N2CCc3c(C(F)(F)F)nn(Cc4ccc(F)cc4)c3C2)C1 (stereo not shown) [Example 16-1, Methyl 3-(2-(1-(4-fluorobenzyl)-3-(trifluoromethyl)-4,5-dihydro-1H-pyrazolo[3,4-c]pyridin-6(7H)-yl)-2-oxoethyl)piperidine-1-carboxylate] | ≥ 7.00
CC(C)(C)OC(=O)N1CC(CC(=O)N2CCc3c(C(F)(F)F)nn(Cc4ccc(Cl)cc4F)c3C2)C1 [Example 8-3, tert-Butyl 3-(2-(1-(4-chloro-2-fluorobenzyl)-3-(trifluoromethyl)-4,5-dihydro-1H-pyrazolo[3,4-c]pyridin-6(7H)-yl)-2-oxoethyl)azetidine-1-carboxylate] | ≥ 7.00
O=C(C[C@H]1CC[C@H](C(=O)O)CC1)N1CCc2c(C3CC3)nn(Cc3ccc(F)cc3)c2C1 [Example 5-38, trans-4-(2-(3-Cyclopropyl-1-(4-fluorobenzyl)-4,5-dihydro-1H-pyrazolo[3,4-c]pyridin-6(7H)-yl)-2-oxoethyl)cyclohexanecarboxylic acid] | ≥ 7.00
O=C(O)CCC(=O)N1CCc2c(C(F)(F)F)nn(Cc3ccc(Cl)cc3F)c2C1 [Example 14-3, 4-(1-(4-Chloro-2-fluorobenzyl)-3-(trifluoromethyl)-4,5-dihydro-1H-pyrazolo[3,4-c]pyridin-6(7H)-yl)-4-oxobutanoic acid] | ≥ 7.00
O=C(C[C@H]1CC[C@H](C(=O)O)CC1)N1CCc2c(C(F)(F)F)nn(Cc3cccnc3)c2C1 [Example 5-22, trans-4-(2-Oxo-2-(1-(pyridin-3-ylmethyl)-3-(trifluoromethyl)-4,5-dihydro-1H-pyrazolo[3,4-c]pyridin-6(7H)-yl)ethyl)cyclohexanecarboxylic acid] | ≥ 7.00
NC(=O)[C@H]1CC[C@@H](CC(=O)N2CCc3c(C(F)(F)F)nn(Cc4ccc(F)cc4)c3C2)CC1 [Example 20-1, cis-4-(2-(1-(4-Fluorobenzyl)-3-(trifluoromethyl)-4,5-dihydro-1H-pyrazolo[3,4-c]pyridin-6(7H)-yl)-2-oxoethyl)cyclohexanecarboxamide] | ≥ 7.00
O=C(C[C@H]1CC[C@@H](C(=O)O)CC1)N1CCc2c(C(F)(F)F)nn(Cc3cc(F)cc(Cl)c3)c2C1 [Example 5-4, cis-4-(2-(1-(3-chloro-5-fluorobenzyl)-3-(trifluoromethyl)-4,5-dihydro-1H-pyrazolo[3,4-c]pyridin-6(7H)-yl)-2-oxoethyl)cyclohexanecarboxylic acid] | ≥ 7.00
NC(=O)[C@H]1CC[C@H](CC(=O)N2CCc3c(C(F)(F)F)nn(Cc4ccc(F)cc4)c3C2)CC1 [Example 20-2, trans-4-(2-(1-(4-Fluorobenzyl)-3-(trifluoromethyl)-4,5-dihydro-1H-pyrazolo[3,4-c]pyridin-6(7H)-yl)-2-oxoethyl)cyclohexanecarboxamide] | ≥ 7.00
N#CC1CCN(CC(=O)N2CCc3c(C(F)(F)F)nn(Cc4ccc(F)cc4)c3C2)CC1 [Example 12-10, 1-(2-(1-(4-Fluorobenzyl)-3-(trifluoromethyl)-4,5-dihydro-1H-pyrazolo[3,4-c]pyridin-6(7H)-yl)-2-oxoethyl)piperidine-4-carbonitrile TFA salt] | ≥ 7.00
CCC1CC(CC(=O)N2CCc3c(C(F)(F)F)nn(Cc4ccc(F)cc4)c3C2)CCN1 (stereo not shown) [Example 9-11, 2-(2-Ethylpiperidin-4-yl)-1-(1-(4-fluorobenzyl)-3-(trifluoromethyl)-4,5-dihydro-1H-pyrazolo[3,4-c]pyridin-6(7H)-yl)ethanone TFA salt] | ≥ 7.00
